What all share (assay): NCI-60 cell line screen, 48 h
Assay [1] deals with A498 renal.
The test system of assay [2] is HT29 colon.
The test system of assay [3] is KM12 colon.
The subject of assay [4] is MCF7 breast.
For assay [5], the system named is MDA-MB-435.
Assay [6] concerns SF-295 CNS.
Assay [7] concerns SK-MEL-5 melanoma.
The subject of assay [8] is SK-OV-3 ovarian.
Assay [9] relates to SNB-75 CNS.
Assay [10] relates to MOLT-4 leukemia.

Each structure is given as a SMILES string.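 Method: 48-hour compound exposure of cells in 96-well plates, five concentrations, linear interpolation of endpoints. Here, GI50 denotes the concentration required for 50% inhibition of growth. TGI marks complete inhibition of growth.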

The record followed here is PubChem BioAssay (NCI).

For the compound `NNC(=O)C(O)C(O)C(O)CO` (centres undefined), the TGI in assay [1], in assay [2], in assay [3], in [4], in assay [5] and in assay [6] was above 100 µM throughout. Moreover, the TGI in [7], in assay [8] and in assay [9] was above 100 µM in each case.
For `C[C@]12CC/C(=N\O)C[C@@H]1CC[C@@H]1[C@@H]2CC[C@]2(C)/C(=N/O)CC[C@@H]12`, the GI50 was 47.2 µM in assay [1]; 42.7 µM in assay [2]; 20.9 µM in assay [3]; 26.1 µM in [4]; 24.8 µM in assay [5]; 64.4 µM in assay [10]. The GI50 was 38.2 µM in assay [6], 23.6 µM in assay [7], 51.4 µM in assay [8] and 37.3 µM in assay [9]. In addition, the TGI is above 100 µM in assay [1]; above 100 µM in assay [2]; 47.4 µM in assay [3]; 98.8 µM in assay [4]; 70.8 µM in assay [5]; above 100 µM in assay [10]. For the same compound, the TGI in assay [6] was above 100 µM; in assay [7], 53.9 µM; in [8], above 100 µM; in [9], above 100 µM.
Take `CC1=CC[C@@H]2[C@@H](CC[C@@]2(C)O)C(C)(C)[C@H]1CC[C@@H]1[C@@]2(C)CC[C@@H](O)C(C)(C)O[C@@H]2CC[C@]1(C)O`: the TGI in assay [1] is 29.3 µM; in assay [4] it was above 100 µM; in [5] it was 57 µM; in assay [10] it was 47.5 µM; in [6], above 100 µM; in assay [7], 27.8 µM. In assay [8], this compound gave a TGI above 100 µM.
As to `O=c1ncc(I)c[nH]1`, the GI50 in [1], in [3], in assay [4], in [5], in [10] and in assay [6] was above 100 µM throughout. In addition, the GI50 in assay [7], in assay [8] and in [9] was above 100 µM throughout. For the same compound, the TGI in [1], in assay [3], in assay [4], in assay [5], in [10] and in assay [6] was above 100 µM in each case. The TGI in assay [7], in assay [8] and in [9] was above 100 µM each time.
In the case of `CS(=O)(=O)c1nccc(-c2c(-c3cccc(OCc4ccccc4)c3)nc3sccn23)n1`, the GI50 in [1] was 13.5 µM; in [2], above 41.2 µM; in assay [3], 4.64 µM; in assay [4], 7.31 µM; in assay [5], 13.3 µM; in assay [10] it was 1.64 µM. Moreover, the GI50 in assay [6] is above 100 µM; in assay [7], 1.39 µM; in assay [8], 23.3 µM; in assay [9], above 28.5 µM. Besides, the TGI is above 89.9 µM in assay [1]; above 100 µM in [2]; 9.98 µM in [3]; above 100 µM in assay [4]; above 100 µM in assay [5]; above 100 µM in [10]. The TGI is above 100 µM in [6], 10 µM in assay [7], above 100 µM in [8] and above 100 µM in assay [9].
In the case of `C[C@@]1([C@H](OC(=O)c2cccc3ccccc23)C(N)=O)CO1`, the GI50 in assay [1] was 16.2 µM; in [2], 1.05 µM; in [3], 2.09 µM; in assay [4], 1.24 µM; in assay [10], 0.187 µM; in assay [6] it was 0.427 µM. The GI50 in assay [7] is 2.01 µM; in assay [8] it was 6.35 µM; in assay [9], 5.9 µM. Further, the TGI in assay [1] is 34 µM; in assay [2], above 24 µM; in assay [3] it was 10.8 µM; in assay [4], above 100 µM; in assay [5], 1.74 µM; in assay [10], above 100 µM. Also, the TGI in assay [6] came out at 9.28 µM; in [7] it was 5.75 µM; in assay [8] it was 19.7 µM; in [9], 37.1 µM.
As to `CCC1CCC2C3CC=C4CC(OC(C)=O)C(N)CC4(C)C3CCC12C` (centres undefined), the TGI in assay [1] was determined as 9.63 µM; in [2], 6.32 µM; in [3], 8.64 µM; in assay [4], 14 µM; in assay [5], 5.66 µM; in assay [10] it was 8.01 µM. Further, the TGI in assay [6] was 8.03 µM; in assay [7], 3.7 µM; in [8] it was 24.1 µM; in [9], 5.51 µM.
`COc1ccc(-c2c(-c3cc4c(c(OC)c3OC)OCO4)noc2N)cc1`: the GI50 in assay [1] was 0.374 µM; in [2] it was 0.279 µM; in [3], 0.179 µM; in [4] it was 0.282 µM; in assay [10] it was 0.621 µM; in assay [6], 0.275 µM. Further, the GI50 in assay [7] was 0.311 µM; in assay [8], 0.34 µM; in assay [9], 0.138 µM. Moreover, the TGI was above 100 µM in assay [1]; 3.15 µM in [2]; above 100 µM in [3]; above 77.5 µM in assay [4]; above 100 µM in assay [10]; above 100 µM in assay [6]. The TGI in assay [7] was above 69.4 µM; in assay [8] it was 14.3 µM; in assay [9], 0.489 µM.
For `O=C(NCCN1CCOCC1)Nc1nc2ccc(Sc3nnc4ccc(-c5ccc(F)cc5)nn34)cc2s1`, the GI50 in [1] is 80.6 µM; in [2], 2.79 µM; in [3], 0.571 µM; in assay [10] it was above 100 µM; in [6], 0.101 µM; in [8], above 100 µM. For the same compound, the TGI is above 100 µM in [1]; above 24.2 µM in assay [2]; above 100 µM in assay [3]; above 100 µM in assay [4]; above 100 µM in assay [5]; above 100 µM in [10]. Besides, the results for the TGI in assay [6], in assay [7] and in assay [8] were 1.95 µM, above 28.6 µM and above 100 µM, respectively.
As to `N=C(N)c1ccc(CS(=O)(=O)F)cc1`, the GI50 in assay [2], in [3], in assay [4], in assay [5], in [10] and in assay [6] was above 100 µM throughout. Besides, the GI50 in assay [7], in assay [8] and in assay [9] was above 100 µM each time. Besides, the TGI in assay [2], in [3], in assay [4], in assay [5], in [10] and in [6] was above 100 µM each time. In addition, the TGI in assay [7], in assay [8] and in [9] was above 100 µM throughout.
As for `COc1ccc(Nc2[nH]n(C3=Nc4ccccc4Sc4ccccc43)c(=O)c2C#N)cc1`, the GI50 is 1.39 µM in assay [1]; 1.99 µM in assay [2]; 1.64 µM in assay [3]; 2.18 µM in assay [4]; 1.13 µM in assay [5]; 0.56 µM in assay [6]. Further, the GI50 in assay [7] was 0.396 µM; in [8], 5.9 µM; in [9], 1.51 µM. The TGI came out at 8.01 µM in [1]; 9.35 µM in assay [2]; 11.3 µM in assay [3]; 11.7 µM in assay [4]; 3.99 µM in assay [5]; 4.34 µM in assay [6]. Besides, the figures for the TGI in [7], in assay [8] and in assay [9] were 1.48 µM, 54.1 µM and above 100 µM, respectively.
Regarding `CCCCCCCCCCCCCCCCCc1cc(Cl)nc(Cl)n1`, the TGI in assay [2], in [3], in assay [4], in assay [5], in [10] and in assay [6] was above 100 µM throughout. Also, the TGI in [7], in assay [8] and in [9] was above 100 µM in each case.
For the compound `COc1ccc(-c2cnc(SCC(=O)c3c(C)n(C)n(-c4ccccc4)c3=O)n2-c2ccc(OC)cc2)cc1`, the GI50 in [2] is above 50 µM; in assay [3], above 50 µM; in assay [4] it was 35.3 µM; in assay [5], above 50 µM; in assay [10], 12.6 µM; in assay [6], above 50 µM. Moreover, the GI50 in assay [7] was 22.3 µM. In addition, the TGI in [2], in [3], in assay [4], in assay [5], in assay [10] and in assay [6] was above 50 µM in each case. For the same compound, the TGI in assay [7] is above 50 µM.
As for `COc1cc(-c2nn(-c3ccc(NC(=O)Nc4ccc(Cl)c(C(F)(F)F)c4)cc3)cc2-c2ccncc2)ccc1Cl`, the GI50 is 1.41 µM in assay [1]; 1.36 µM in assay [3]; 2.51 µM in assay [4]; 1.6 µM in [5]; 1.56 µM in assay [7]; 2.53 µM in assay [8]. Also, in assay [9], the GI50 was 1.28 µM. Moreover, the TGI amounted to 3.54 µM in assay [1]; 2.87 µM in assay [3]; 8.28 µM in assay [4]; 3.54 µM in assay [5]; 2.94 µM in [7]; 6.43 µM in assay [8]. The same compound yielded a TGI in [9] of 4.03 µM.
Take `COc1ccc(-c2cc(=O)c3c(OC)c(O)c(OC)cc3o2)cc1`: the TGI in [1] is 88.5 µM; in assay [2], above 100 µM; in assay [4], above 100 µM; in [5], above 100 µM; in [10], above 100 µM; in assay [6], above 100 µM. In addition, the TGI is 94.9 µM in assay [7], above 100 µM in assay [8] and above 100 µM in assay [9].
As for `O=C1/C(=N/N=C(c2ccccc2)c2ccccc2)c2ccccc2-c2ccccc21`, the TGI in assay [2], in assay [3], in assay [4], in [5], in [10] and in assay [6] was above 100 µM in each case. In addition, the TGI in assay [7], in [8] and in assay [9] was above 100 µM each time.
`Cc1c(C)n(CC(O)CNC2CCCCC2C)c2ccccc12` (centres undefined): the GI50 was 4.99 µM in [1]; 15.3 µM in assay [3]; 13.2 µM in assay [4]; 12.8 µM in [5]; 15.3 µM in [10]; 14.1 µM in assay [6]. In addition, the GI50 was 12.6 µM in [7], 18.2 µM in [8] and 10.1 µM in assay [9]. Further, the TGI in assay [1] was 19.6 µM; in [3] it was 28.9 µM; in assay [4], 28.3 µM; in assay [5], 25.4 µM; in assay [10], 41.2 µM; in [6] it was 28.2 µM. The TGI came to 25.4 µM in [7], 32.9 µM in assay [8] and 21.7 µM in [9].
For the compound `CN(C)c1ccc(/C=N/NC(=O)CSc2nc3sc4c(c3c(=O)n2-c2ccccc2)CCCCC4)cc1`, the GI50 is 4.31 µM in assay [2]; above 100 µM in assay [3]; 4.7 µM in assay [4]; 5.07 µM in assay [5]; above 100 µM in assay [10]; 3.39 µM in [6]. Further, the GI50 in assay [7] is 3.44 µM; in [8] it was 11.3 µM; in assay [9], 2.68 µM. Further, the TGI was above 100 µM in assay [2]; above 100 µM in [3]; above 100 µM in [4]; above 100 µM in assay [5]; above 100 µM in assay [10]; 20.7 µM in assay [6]. The TGI is above 100 µM in assay [7], 51 µM in assay [8] and 14.6 µM in [9].
Take `Nc1nc2ccccc2c2[nH]c3ccccc3c12`: the GI50 in assay [1] is 1.16 µM; in assay [2], 0.509 µM; in assay [3], 1.04 µM; in [4], 1.19 µM; in assay [5], 0.938 µM; in assay [7] it was 1.64 µM. Besides, the results for the GI50 in [8] and in assay [9] were 4.91 µM and 5.49 µM, respectively. For the same compound, the TGI in [1] stood at 2.42 µM; in assay [2], 1.93 µM; in assay [3], 3.26 µM; in [4], 2.55 µM; in [5], 3.16 µM; in assay [7], 3.01 µM. The TGI in assay [8] turned out to be 18.9 µM; in assay [9], 16.4 µM.
